Measurements taken from patent publication US20090238895A1, “NUTRITIONAL AND/OR PHARMACEUTICAL PREPARATION FOR USE IN PROPHYLAXIS AND TREATMENT OF DISTURBANCES IN MICROELEMENTS ABSORPTION FROM THE ALIMENTARY CANAL” (priority 2004, published 2009).
Marks after values point to notes of the source that are not given here.

Legend:
[1] = AKG concentration in plasma of young pigs after AKG or FeSO4/AKG infusion to the duodenum or pelvic intestine; format: in vivo; settings: FeSO4 infused with AKG
Description: (§1) Investigations were performed on 3 piglets of the Swedish race Landrace weighting 30-35 kg. Animals originated from the university herd (Swedish Agricultural University, Dept. of Agricultural Biosystems and Technology, Lund). Young pigs were fed 2 times a day at the same time (9:00-10:00 a.m. and 3:00-4:00 p.m.) with a standard fodder (Vaxfor, Lantmanen, Sweden) with a daily dose 50 g/kg body weight. They were watered ad libitum. Animals were held separately in boxes with automatically regulated 12 hour's periods of day and night.
(§2) Sterile catheters and T-fistulas used in the experience were made of silicone tubes with maintained medical standards (Dow Cornning). Piglets were starved for 9-12 hours before the operation. Before the operation animals received a sedative drug—azoperone (Stresnil, 2 mg/kg body weight). Then the inhalation induction of general anaesthesia was performed (Fluothan 0.5-1.5 vol %). […] With the catheters inserted to the portal vein and the common carotid-artery the blood samples for later analyses were collected.
Two incisions were done: one 10-15 cm close to the right hunger fossa, second 2-3 cm between the brachial joint and the angle of the mandible. Duodenal fistula was placed behind the opening of the pancreatic duct to the duodenum. […]

[2] = Iron concentration in plasma of young pigs after FeSO4 or FeSO4/AKG infusion to the duodenum or pelvic intestine; format: in vivo
Description: as §1, §2
Two incisions were done: one 10-15 cm close to the right hunger fossa, second 2-3 cm between the brachial joint and the angle of the mandible. Duodenal fistula was placed behind the opening of the pancreatic duct to the duodenum. Pelvic T-fistula (int. diameter 3.18 mm and ext. diameter 4.64 mm—both fistulas) was introduced to the pelvic intestine at the end of the caeco-iliac ligament.
The catheter to the portal vein (int. diameter 0.64 mm and ext. diameter 1.19 mm) was introduced through the liver and fixed with several sutures (0-2 Catgut, Ethicon, England). The catheter placed in portal vein and both intestinal fistulas were brought out the body in the line of incision. After dissection of zygomatic vein the catheter was introduced in the cardiac direction on the depth of 7 cm. The vein was closed with the double ligature (0-3 silicone-, Ethicon, England) and brought outside the body with the surgical needle in the dorsal part of the neck. The abdomen and the neck wounds were closed with two layers of sutures: the peritoneum (only in the abdomen wound) and muscles were closed with twisted suture (0-0 Catgut , Ethicon), the skin was closed with the interrupted sutures (Suturamid 2-0, Ethicon). After operation young pigs were placed in separate boxes. During 5 postoperative days animals were fed twice a day, they received water ad libitum. The operation was performed by the skilled surgeon in accordance with surgical techniques.
Before infusion animals were starved. The daily dose of food was given during evening feeding at 3:00 p.m. All infusions were started at 9:00 a.m. Blood samples were taken 30 minutes before and 15, 30, 60 and 120 minutes after the infusion. 2. Infusions composition.

O=S(=O)([O-])[O-].[Fe+2] [FeSO4]
effect on absorption of AKG from the intestine into the blood [1]: increases the absorption of AKG from the intestine into the blood | iron concentration in plasma ([2]; infusion to pelvic intestine, portal vein, 15 min): 18.00 ± 5.41^a μmol/l | iron concentration in plasma ([2]; infusion to pelvic intestine, portal vein, 30 min): 17.67 ± 6.53^a μmol/l | iron concentration in plasma ([2]; infusion to pelvic intestine, portal vein, 60 min): 16.83 ± 6.81^a μmol/l | iron concentration in plasma ([2]; infusion to pelvic intestine, portal vein, 120 min): 15.33 ± 7.18^a μmol/l | iron concentration in plasma ([2]; infusion to pelvic intestine, portal vein, -30 min (before infusion)): 19.17 ± 8.69^a μmol/l | iron concentration in plasma ([2]; infusion to pelvic intestine, zygomatic vein, 15 min): 18.83 ± 6.81^a μmol/l | iron concentration in plasma ([2]; infusion to pelvic intestine, zygomatic vein, 30 min): 18.83 ± 6.81^a μmol/l | iron concentration in plasma ([2]; infusion to pelvic intestine, zygomatic vein, 60 min): 18.00 ± 7.47^a μmol/l | iron concentration in plasma ([2]; infusion to pelvic intestine, zygomatic vein, 120 min): 15.67 ± 6.43^a μmol/l | iron concentration in plasma ([2]; infusion to pelvic intestine, zygomatic vein, -30 min (before infusion)): 19.67 ± 7.97^a μmol/l | iron concentration in plasma ([2]; infusion to the duodenum, portal vein, 15 min): 28.5 ± 4.09^b μmol/l | iron concentration in plasma ([2]; infusion to the duodenum, portal vein, 30 min): 37.67 ± 5.3^cb μmol/l | iron concentration in plasma ([2]; infusion to the duodenum, portal vein, 60 min): 40.17 ± 4.62^c μmol/l | iron concentration in plasma ([2]; infusion to the duodenum, portal vein, 120 min): 37.17 ± 4.37^c μmol/l | iron concentration in plasma ([2]; infusion to the duodenum, portal vein, -30 min (before infusion)): 16.33 ± 1.04^a μmol/l | iron concentration in plasma ([2]; infusion to the duodenum, zygomatic vein, 15 min): 29.17 ± 5.51^b μmol/l | iron concentration in plasma ([2]; infusion to the duodenum, zygomatic vein, 30 min): 39.50 ± 4.09^c μmol/l | iron concentration in plasma ([2]; infusion to the duodenum, zygomatic vein, 60 min): 43.0 ± 4.82^c μmol/l | iron concentration in plasma ([2]; infusion to the duodenum, zygomatic vein, 120 min): 39.5 ± 3.5^c μmol/l | iron concentration in plasma ([2]; infusion to the duodenum, zygomatic vein, -30 min (before infusion)): 18.2 ± 1.53^a μmol/l
